What was measured:
HDF and HUVEC co-culture = test: In vitro co-culture tube formation assay; format: cell-based, human; conditions: for tube formation, pre-formed tubes: treated after tube formation; for tube length, de novo tube formation: treated prior to tube formation, 14 days
Protocol: Representative pictures taken at day 14 are shown. Tube formation was quantified by measuring tube length ([…]) and is shown.
HDF were seeded in 96-well plate (2500 cells/well). Once HDF formed a monolayer, media was removed and HUVECs (2500 cells/well) were seeded on top of HDF. […] The effect on existing vessels was assayed by allowing tubes to form prior to treatment. Cells were treated every 3-days during 14 days of incubation, followed by washing with PBS and fixation with 4% formaldehyde for 15 min at room temperature (RT). Cells were permeabilized with 1× PBS containing 0.1% Triton X-100 for 5 min at RT and blocked 30 min in 1% BSA/PBS. Afterwards, cells were incubated with CD31 antibody (Thermo Fisher, MA5-13188) […] followed by incubation with secondary Alexa fluor 488F goat-anti-mouse (Thermo Fisher, A28175) at 1/2000 dilution for 3 h at RT. Immunolabeled samples were counterstained with Hoechst 33342 nuclear dye (Thermo Fisher, 62249) at 1/1000 dilution for 15 min. Tubes were visualized with IN Cell Analyzer 2000 using a 2× objective. Tube length was measured and quantified using the AngioTool software for each imaging session (available in the public domain at https://ccrod.cancer.gov/confluence/display/ROB2/Downloads

VEGFA mRNA = test: RNA-seq of hypoxia activated HDF, VEGFA mRNA; format: cell-based, human
Protocol: Afterwards RNA was extracted and analysed by RNA-seq. […] To evaluate which signalling pathways are induced in hypoxia activated fibroblasts, a comparative pathway analysis was performed on of samples coming from both, non-activated (normoxia) and hypoxia activated primary fibroblasts.

HIF-1α = test: Ubiquitination assay, TUBE pull-down of polyubiquitinated HIF-1α; format: cell-based, human; conditions: HDF, hypoxia
Protocol: Given HIF-1α stability is known to be regulated at the protein level by ubiquitination, we investigated whether USP7 inhibition modulates HIF-1α polyubiquitination. […] Cells were harvested, lysed and polyubiquitinated proteins pulled down using two types of Tetra Ubiquitin Binding Entities (TUBES); with equal affinity for K48/K63 or 10 times more affinity for […]. Samples were analysed by immuno-blot using a HIF-1α antibody. […] These findings indicate that USP7 inhibition results in K48 polyubiquitination of HIF-1α and consequently, its proteasomal-mediated degradation.
Cells were lysed in a buffer containing 50 mM Tris-HCl, pH 7.5, 150 mM NaCl, 1 mM EDTA, 1% NP-40, 10% Glycerol, 50 mM NaF, 5 mM sodium pyrophosphate, 10 mM glycerol phosphate, 1 mM sodium orthovanadate, protease and phosphatase inhibitor tablet and 50 uM PR-619. Lysates were pre-cleared by centrifugation at 4° C. for 15 mins at 16,000× g and protein concentration determined using BCA method. 20 ul of samples was taken as input. Pre-cleared supernatant containing 0.5 mg of total protein was added to 20 ul equilibrated Agarose-TUBE 1 or TUBE 2 beads (Life Sensors) and incubated for 2 hours at 4° C. on a rocker platform. Beads were collected by low speed centrifugation (1000-5000× g, 4° C.) for 5 minutes and supernatant taken as FT. Beads were washed twice with 1 ml TBS-T (20 mM Tris-HCl, pH 8.0, 0.15M NaCl, 0.1% Tween-20) and collected by low speed centrifugation. Finally, beads were resuspended in 30 ul of SDS reducing sample buffer and boiled for 10 min at 95° C.

[1] = test system: CT-26 mouse cancer cell line; test: CT-26 cell viability in vitro; format: cell-based
Protocol: CT-26 syngeneic models are in vivo models to monitor the effect of compounds on the TME. […] After 72 hours cell viability was measured by CellTiter-Glo®.

[2] = test system: primary human fibroblasts (HDF) in hypoxic chamber; test: sVEGF ELISA in primary fibroblasts under hypoxia; format: cell-based; conditions: 48 h
From the text: FIG. 9: USP7 inhibition decreases VEGF levels in fibroblasts under hypoxia.
In response to wounding and during tumour growth, activated fibroblasts secrete synthesizers and modifiers of the ECM but also soluble angiogenic growth factors such as VEGF. Although VEGF gene expression can be controlled by multiple transcription factors, its major regulator is hypoxia-inducible factor 1 (HIF-1). HIF-1 mediates activation of VEGF transcription in response to hypoxia in solid tumours and in various malignant cell lines.
To assess its potency in a functional assay, HDF were treated with vehicle or various concentrations of USP7 inhibitor ADC-159 and incubated for 48 hours in hypoxic chamber. Cell culture supernatants were collected, and secreted VEGF was measured by ELISA.
For the co-culture experiments, 5×10^4 cancer cells were seeded in transwell in 0.5 mL complete growth medium and placed on the top of 0.1×10^6 fibroblasts plated in 12-well in 1 mL low serum growth media overnight. Following day cancer cells were washed with PBS and media replaced with reduced (1%) serum growth media. 0.5×10^6 PBMC were plated on top of fibroblasts, incubated for 45 min and activated with CD3 (1 μg/ml final concentration) and CD28 (5 μg/ml final concentration). […] Monoculture experiments, 0.1×10^6 cells were seeded in 12-well in 1 mL of complete growth media (cancer cells) or low serum growth media (fibroblasts) and incubated overnight. […] Afterwards, cell culture media was collected, cell debris were removed by centrifugation the concentration of VEGF in the cell culture supernatants was measured using the human/mouse VEGF immunoassay Quantikine ELISA kit (R&D systems, Minneapolis, Minn., USA) according to the manufacturer's instructions. For the intracellular VEGF detection, total protein concentration was determined by BCA (Pierce Chemical, USA) and VEGF levels determined using the same kit described above.

3A4 = 3A4 (Homo sapiens, UniProt P08684); test: Cyp inhibition 3A4; format: in vitro ADME; conditions: read-out: Cyps: 3A4
CT-26 tumours = test: Flow cytometry of tumour infiltrating immune cells, CT-26 model (ADC-159); format: in vivo, mouse; conditions: ADC-159 alone or in combination with ICIs, 13 days
Protocol: FIG. 40: USP7 inhibitor ADC-159 modulates the tumour microenvironment immune compartment in vivo.
Harvested tumours were collected in HBSS medium, minced and incubated 30 minutes at 37° C. in non-enzymatic cell dissociation buffer followed by mechanical dissociation through a 70 μm filter. Viable cells were then enriched using Ficoll® gradient. All cells suspensions were count and one million viable cells were seeded in 96-well plates in 100 μL of Staining Buffer for acquisition. Non-specific binding was performed using mouse FcR blocking reagent. Viobility 405/452 Fixable Dye (Miltenyi Biotec) was used to assess cell viability. The antibodies directed against the CD45, CD335 (Nkp46), FoxP3 CD8a, CD4, CD3e, CD19, F4/80, CD11c, CD11 b (Miltenyi Biotec), Ly6G and Ly6C (Biolegend) were added. The stained cells were analyzed with a Fortessa X20 cytometer (BD Biosciences).

Sequence of 3A4 (P08684 whole entry): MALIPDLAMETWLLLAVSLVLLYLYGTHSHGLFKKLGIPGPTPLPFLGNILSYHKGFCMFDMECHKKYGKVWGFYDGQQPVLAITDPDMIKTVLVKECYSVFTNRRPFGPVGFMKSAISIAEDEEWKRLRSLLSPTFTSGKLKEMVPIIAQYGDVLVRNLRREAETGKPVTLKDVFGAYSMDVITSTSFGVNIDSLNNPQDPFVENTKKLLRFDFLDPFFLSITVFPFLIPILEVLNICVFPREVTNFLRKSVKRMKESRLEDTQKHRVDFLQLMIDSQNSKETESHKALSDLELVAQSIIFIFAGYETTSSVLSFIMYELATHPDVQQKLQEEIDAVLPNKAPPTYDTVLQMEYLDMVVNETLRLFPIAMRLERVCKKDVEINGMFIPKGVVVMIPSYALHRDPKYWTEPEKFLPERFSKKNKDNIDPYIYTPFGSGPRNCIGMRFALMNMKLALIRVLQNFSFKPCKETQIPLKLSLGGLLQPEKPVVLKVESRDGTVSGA

Compound	tube formation, pre-formed tubes (HDF and HUVEC co-culture)	tube length, de novo tube formation (HDF and HUVEC co-culture)	mRNA expression of anti-angiogenic short (191aa) isoform (VEGFA mRNA; hypoxia, 24 hours)	mRNA expression of pro-angiogenic long (371aa) isoform (VEGFA mRNA; hypoxia, 24 hours)	VEGF mRNA levels (VEGFA mRNA; hypoxic conditions)	K63 specific polyubiquitination of HIF-1α (HIF-1α; versus DMSO control)	K63/K48 polyubiquitinated HIF-1α (HIF-1α; AD-04 1 μM, MG132 10 μM, 1 hour)	sensitivity of CT-26 cell line in vitro [1]	VEGF secretion under hypoxia [2]	IC50 (3A4) [µM]	recruitment of cytotoxic lymphocytes into the tumour (CT-26 tumours)
C[C@H](CC(=O)N1CCC(O)(Cn2cnc3c(-c4ccc(CN)cc4)n(C)nc3c2=O)CC1)c1ccccc1 [AD-04, (R)-3-(4-(Aminomethyl)phenyl)-6-((4-hydroxy-1-(3-phenylbutanoyl)piperidin-4-yl)methyl)-2-methyl-2H-pyrazolo[4,3-d]pyrimidin-7(6H)-one]	significantly less pronounced	significant reduction	up-regulated	strongly down-regulated	down-regulated	no difference	enhanced the accumulation	not sensitive	decreased in a dose-dependent manner		
CC1(C(=O)N2CCC(O)(Cn3cnc4c(cc(Cl)n4-c4ccc5c(c4)CCO5)c3=O)CC2)CC1 [ADC-159, 6-Chloro-7-(2,3-dihydrobenzofuran-5-yl)-3-((4-hydroxy-1-(1-methylcyclopropane-1-carbonyl)piperidin-4-yl)methyl)-3,7-dihydro-4H-pyrrolo[2,3-d]pyrimidin-4-One]	did not have significant effect	inhibitory effect						not sensitive	decreased VEGF levels in a dose-dependent manner	> 20	increases recruitment

Source: patent publication US20230088286A1, “USP7 INHIBITOR FOR USE IN THE TREATMENT OF CANCER” (ALMAC DISCOVERY LIMITED, priority 2020, published 2023)
